Test results from US10167262B2, “Herbicidal substituted 3-arylpyrazoles” (FMC CORPORATION, priority 2014, dated 2019).

What follows are molecules tested on large (Lg) crabgrass (Digitaria sanguinalis) (assay: Test C pre-/postemergence greenhouse test, plant response rating 0-100). Conditions: Postemergence, 62 g ai/ha.
Type: in vivo
Summary of the method: (§1)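 Scores run from 0, no effect, to 100, complete control, assigned by eye after treated plants and controls spent 13 to 15 days in a greenhouse. Soil-applied treatment went onto freshly sown seed in loam and sand; foliar treatment hit seedlings at the 1- to 4-leaf stage.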

Structure (SMILES)	Plant response rating (0 to 100), Crabgrass, Large
Clc1cc(Cl)cc(-c2n[nH]cc2C(=NNc2ccccc2Cl)c2ccccc2)c1 [Compound 66]	0

Same assay, conditions: Postemergence, 125 g ai/ha

Structure (SMILES)	Plant response rating (0 to 100), Crabgrass, Large
Clc1cc(Cl)cc(-c2n[nH]cc2C(=NNc2ccccc2Cl)c2ccccc2)c1 [Compound 66]	0

Same assay, conditions: Postemergence, 250 g ai/ha; scale 0 to 100

Structure (SMILES)	Plant response rating, Crabgrass, Large
Clc1cc(Cl)cc(-c2n[nH]cc2C(=NNc2ccccc2Cl)c2ccccc2)c1 [Compound 66]	0

Same assay, conditions: Postemergence, 500 g ai/ha; scale 0 to 100

Structure (SMILES)	Plant response rating, Crabgrass, Large
Clc1cc(Cl)cc(-c2n[nH]cc2C(=NNc2ccccc2Cl)c2ccccc2)c1 [Compound 66]	0

These molecules were tested on soybean (Glycine max) in the same assay as above. Conditions: Postemergence, 62 g ai/ha.
Type: in vivo
Summary of the method: as §1

Structure (SMILES)	Plant response rating (0 to 100), Soybean
Clc1cc(Cl)cc(-c2n[nH]cc2C(=NNc2ccccc2Cl)c2ccccc2)c1 [Compound 66]	0

Same assay, conditions: Postemergence, 125 g ai/ha

Structure (SMILES)	Plant response rating (0 to 100), Soybean
Clc1cc(Cl)cc(-c2n[nH]cc2C(=NNc2ccccc2Cl)c2ccccc2)c1 [Compound 66]	0

Same assay, conditions: Postemergence, 250 g ai/ha; scale 0 to 100

Structure (SMILES)	Plant response rating, Soybean
Clc1cc(Cl)cc(-c2n[nH]cc2C(=NNc2ccccc2Cl)c2ccccc2)c1 [Compound 66]	0

Same assay, conditions: Postemergence, 500 g ai/ha; scale 0 to 100

Structure (SMILES)	Plant response rating, Soybean
Clc1cc(Cl)cc(-c2n[nH]cc2C(=NNc2ccccc2Cl)c2ccccc2)c1 [Compound 66]	5

What follows are molecules tested on galium (catchweed bedstraw, Galium aparine) in the same assay as above. Conditions: Postemergence, 62 g ai/ha.
Type: in vivo
Summary of the method: as §1

Structure (SMILES)	Plant response rating (0 to 100), Galium
Clc1cc(Cl)cc(-c2n[nH]cc2C(=NNc2ccccc2Cl)c2ccccc2)c1 [Compound 66]	0

Same assay, conditions: Postemergence, 125 g ai/ha

Structure (SMILES)	Plant response rating (0 to 100), Galium
Clc1cc(Cl)cc(-c2n[nH]cc2C(=NNc2ccccc2Cl)c2ccccc2)c1 [Compound 66]	0

Same assay, conditions: Postemergence, 250 g ai/ha; scale 0 to 100

Structure (SMILES)	Plant response rating, Galium
Clc1cc(Cl)cc(-c2n[nH]cc2C(=NNc2ccccc2Cl)c2ccccc2)c1 [Compound 66]	0

Same assay, conditions: Postemergence, 500 g ai/ha; scale 0 to 100

Structure (SMILES)	Plant response rating, Galium
Clc1cc(Cl)cc(-c2n[nH]cc2C(=NNc2ccccc2Cl)c2ccccc2)c1 [Compound 66]	5

Each molecule was assayed on ragweed (common ragweed, Ambrosia elatior) in the same assay as above. Conditions: Postemergence, 62 g ai/ha.
Type: in vivo
Summary of the method: as §1

Structure (SMILES)	Plant response rating (0 to 100), Ragweed
Clc1cc(Cl)cc(-c2n[nH]cc2C(=NNc2ccccc2Cl)c2ccccc2)c1 [Compound 66]	10

Same assay, conditions: Postemergence, 125 g ai/ha

Structure (SMILES)	Plant response rating (0 to 100), Ragweed
Clc1cc(Cl)cc(-c2n[nH]cc2C(=NNc2ccccc2Cl)c2ccccc2)c1 [Compound 66]	80

Same assay, conditions: Postemergence, 500 g ai/ha; scale 0 to 100

Structure (SMILES)	Plant response rating, Ragweed
Clc1cc(Cl)cc(-c2n[nH]cc2C(=NNc2ccccc2Cl)c2ccccc2)c1 [Compound 66]	95

The molecules below were run on lambsquarters (Chenopodium album) in the same assay as above. Conditions: Postemergence, 62 g ai/ha.
Type: in vivo
Summary of the method: as §1

Structure (SMILES)	Plant response rating (0 to 100), Lambsquarters
Clc1cc(Cl)cc(-c2n[nH]cc2C(=NNc2ccccc2Cl)c2ccccc2)c1 [Compound 66]	40

Same assay, conditions: Postemergence, 125 g ai/ha

Structure (SMILES)	Plant response rating (0 to 100), Lambsquarters
Clc1cc(Cl)cc(-c2n[nH]cc2C(=NNc2ccccc2Cl)c2ccccc2)c1 [Compound 66]	50

Same assay, conditions: Postemergence, 250 g ai/ha; scale 0 to 100

Structure (SMILES)	Plant response rating, Lambsquarters
Clc1cc(Cl)cc(-c2n[nH]cc2C(=NNc2ccccc2Cl)c2ccccc2)c1 [Compound 66]	90

Same assay, conditions: Postemergence, 500 g ai/ha; scale 0 to 100

Structure (SMILES)	Plant response rating, Lambsquarters
Clc1cc(Cl)cc(-c2n[nH]cc2C(=NNc2ccccc2Cl)c2ccccc2)c1 [Compound 66]	90

Each molecule was assayed on velvetleaf (Abutilon theophrasti) in the same assay as above. Conditions: Postemergence, 62 g ai/ha.
Type: in vivo
Summary of the method: as §1

Structure (SMILES)	Plant response rating (0 to 100), Velvetleaf
Clc1cc(Cl)cc(-c2n[nH]cc2C(=NNc2ccccc2Cl)c2ccccc2)c1 [Compound 66]	55

Same assay, conditions: Postemergence, 125 g ai/ha

Structure (SMILES)	Plant response rating (0 to 100), Velvetleaf
Clc1cc(Cl)cc(-c2n[nH]cc2C(=NNc2ccccc2Cl)c2ccccc2)c1 [Compound 66]	55

Same assay, conditions: Postemergence, 250 g ai/ha; scale 0 to 100

Structure (SMILES)	Plant response rating, Velvetleaf
Clc1cc(Cl)cc(-c2n[nH]cc2C(=NNc2ccccc2Cl)c2ccccc2)c1 [Compound 66]	80

Same assay, conditions: Postemergence, 500 g ai/ha; scale 0 to 100

Structure (SMILES)	Plant response rating, Velvetleaf
Clc1cc(Cl)cc(-c2n[nH]cc2C(=NNc2ccccc2Cl)c2ccccc2)c1 [Compound 66]	90

What follows are molecules tested on blackgrass (Alopecurus myosuroides) in the same assay as above. Conditions: Postemergence, 62 g ai/ha.
Type: in vivo
Summary of the method: as §1

Structure (SMILES)	Plant response rating (0 to 100), Blackgrass
Clc1cc(Cl)cc(-c2n[nH]cc2C(=NNc2ccccc2Cl)c2ccccc2)c1 [Compound 66]	0

Same assay, conditions: Postemergence, 125 g ai/ha

Structure (SMILES)	Plant response rating (0 to 100), Blackgrass
Clc1cc(Cl)cc(-c2n[nH]cc2C(=NNc2ccccc2Cl)c2ccccc2)c1 [Compound 66]	0

Same assay, conditions: Postemergence, 250 g ai/ha; scale 0 to 100

Structure (SMILES)	Plant response rating, Blackgrass
Clc1cc(Cl)cc(-c2n[nH]cc2C(=NNc2ccccc2Cl)c2ccccc2)c1 [Compound 66]	0

Same assay, conditions: Postemergence, 500 g ai/ha; scale 0 to 100

Structure (SMILES)	Plant response rating, Blackgrass
Clc1cc(Cl)cc(-c2n[nH]cc2C(=NNc2ccccc2Cl)c2ccccc2)c1 [Compound 66]	0

What follows are molecules tested on yellow nutsedge (Cyperus esculentus) in the same assay as above. Conditions: Postemergence, 62 g ai/ha.
Type: in vivo
Summary of the method: as §1

Structure (SMILES)	Plant response rating (0 to 100), Nutsedge, Yellow
Clc1cc(Cl)cc(-c2n[nH]cc2C(=NNc2ccccc2Cl)c2ccccc2)c1 [Compound 66]	0

Same assay, conditions: Postemergence, 125 g ai/ha

Structure (SMILES)	Plant response rating (0 to 100), Nutsedge, Yellow
Clc1cc(Cl)cc(-c2n[nH]cc2C(=NNc2ccccc2Cl)c2ccccc2)c1 [Compound 66]	0

Same assay, conditions: Postemergence, 250 g ai/ha; scale 0 to 100

Structure (SMILES)	Plant response rating, Nutsedge, Yellow
Clc1cc(Cl)cc(-c2n[nH]cc2C(=NNc2ccccc2Cl)c2ccccc2)c1 [Compound 66]	0

Same assay, conditions: Postemergence, 500 g ai/ha; scale 0 to 100

Structure (SMILES)	Plant response rating, Nutsedge, Yellow
Clc1cc(Cl)cc(-c2n[nH]cc2C(=NNc2ccccc2Cl)c2ccccc2)c1 [Compound 66]	0

The molecules below were run on pigweed (Amaranthus retroflexus) in the same assay as above. Conditions: Postemergence, 62 g ai/ha.
Type: in vivo
Summary of the method: as §1

Structure (SMILES)	Plant response rating (0 to 100), Pigweed
Clc1cc(Cl)cc(-c2n[nH]cc2C(=NNc2ccccc2Cl)c2ccccc2)c1 [Compound 66]	55

Same assay, conditions: Postemergence, 125 g ai/ha

Structure (SMILES)	Plant response rating (0 to 100), Pigweed
Clc1cc(Cl)cc(-c2n[nH]cc2C(=NNc2ccccc2Cl)c2ccccc2)c1 [Compound 66]	85

Same assay, conditions: Postemergence, 250 g ai/ha; scale 0 to 100

Structure (SMILES)	Plant response rating, Pigweed
Clc1cc(Cl)cc(-c2n[nH]cc2C(=NNc2ccccc2Cl)c2ccccc2)c1 [Compound 66]	95

Same assay, conditions: Postemergence, 500 g ai/ha; scale 0 to 100

Structure (SMILES)	Plant response rating, Pigweed
Clc1cc(Cl)cc(-c2n[nH]cc2C(=NNc2ccccc2Cl)c2ccccc2)c1 [Compound 66]	100

The molecules below were run on Italian ryegrass (Lolium multiflorum) in the same assay as above. Conditions: Postemergence, 62 g ai/ha.
Type: in vivo
Summary of the method: as §1

Structure (SMILES)	Plant response rating (0 to 100), Ryegrass, Italian
Clc1cc(Cl)cc(-c2n[nH]cc2C(=NNc2ccccc2Cl)c2ccccc2)c1 [Compound 66]	0

Same assay, conditions: Postemergence, 125 g ai/ha

Structure (SMILES)	Plant response rating (0 to 100), Ryegrass, Italian
Clc1cc(Cl)cc(-c2n[nH]cc2C(=NNc2ccccc2Cl)c2ccccc2)c1 [Compound 66]	0

Same assay, conditions: Postemergence, 250 g ai/ha; scale 0 to 100

Structure (SMILES)	Plant response rating, Ryegrass, Italian
Clc1cc(Cl)cc(-c2n[nH]cc2C(=NNc2ccccc2Cl)c2ccccc2)c1 [Compound 66]	0

Same assay, conditions: Postemergence, 500 g ai/ha; scale 0 to 100

Structure (SMILES)	Plant response rating, Ryegrass, Italian
Clc1cc(Cl)cc(-c2n[nH]cc2C(=NNc2ccccc2Cl)c2ccccc2)c1 [Compound 66]	0

Each molecule was assayed on corn (Zea mays) in the same assay as above. Conditions: Postemergence, 62 g ai/ha.
Type: in vivo
Summary of the method: as §1

Structure (SMILES)	Plant response rating (0 to 100), Corn
Clc1cc(Cl)cc(-c2n[nH]cc2C(=NNc2ccccc2Cl)c2ccccc2)c1 [Compound 66]	0

Same assay, conditions: Postemergence, 125 g ai/ha

Structure (SMILES)	Plant response rating (0 to 100), Corn
Clc1cc(Cl)cc(-c2n[nH]cc2C(=NNc2ccccc2Cl)c2ccccc2)c1 [Compound 66]	0

Same assay, conditions: Postemergence, 250 g ai/ha; scale 0 to 100

Structure (SMILES)	Plant response rating, Corn
Clc1cc(Cl)cc(-c2n[nH]cc2C(=NNc2ccccc2Cl)c2ccccc2)c1 [Compound 66]	5

Same assay, conditions: Postemergence, 500 g ai/ha; scale 0 to 100

Structure (SMILES)	Plant response rating, Corn
Clc1cc(Cl)cc(-c2n[nH]cc2C(=NNc2ccccc2Cl)c2ccccc2)c1 [Compound 66]	5

The molecules below were run on goosegrass (Eleusine indica) (assay: Test C postemergence greenhouse test, plant response rating 0-100). Conditions: 62 g ai/ha.
Type: in vivo
Summary of the method: (§2)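 First, plants were raised in a sphagnum peat, vermiculite and nutrient medium to 1–4 leaves. Next, formulated test compounds were applied over the foliage. Finally, after 13–15 greenhouse days, injury was compared with controls and scored 0–100.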

Structure (SMILES)	Plant response rating (0 to 100), Goosegrass
Clc1cc(Cl)cc(-c2n[nH]cc2C(=NNc2ccccc2Cl)c2ccccc2)c1 [Compound 66]	0

Same assay, conditions: 125 g ai/ha

Structure (SMILES)	Plant response rating (0 to 100), Goosegrass
Clc1cc(Cl)cc(-c2n[nH]cc2C(=NNc2ccccc2Cl)c2ccccc2)c1 [Compound 66]	0

Same assay, conditions: 250 g ai/ha, scale 0 to 100

Structure (SMILES)	Plant response rating, Goosegrass
Clc1cc(Cl)cc(-c2n[nH]cc2C(=NNc2ccccc2Cl)c2ccccc2)c1 [Compound 66]	0

Same assay, conditions: 500 g ai/ha, scale 0 to 100

Structure (SMILES)	Plant response rating, Goosegrass
Clc1cc(Cl)cc(-c2n[nH]cc2C(=NNc2ccccc2Cl)c2ccccc2)c1 [Compound 66]	0

These molecules were tested on bermudagrass (Cynodon dactylon) in the same assay as above. Conditions: 62 g ai/ha.
Type: in vivo
Summary of the method: as §2

Structure (SMILES)	Plant response rating (0 to 100), Bermudagrass
Clc1cc(Cl)cc(-c2n[nH]cc2C(=NNc2ccccc2Cl)c2ccccc2)c1 [Compound 66]	0

Same assay, conditions: 125 g ai/ha

Structure (SMILES)	Plant response rating (0 to 100), Bermudagrass
Clc1cc(Cl)cc(-c2n[nH]cc2C(=NNc2ccccc2Cl)c2ccccc2)c1 [Compound 66]	0

Same assay, conditions: 250 g ai/ha, scale 0 to 100

Structure (SMILES)	Plant response rating, Bermudagrass
Clc1cc(Cl)cc(-c2n[nH]cc2C(=NNc2ccccc2Cl)c2ccccc2)c1 [Compound 66]	0

Same assay, conditions: 500 g ai/ha, scale 0 to 100

Structure (SMILES)	Plant response rating, Bermudagrass
Clc1cc(Cl)cc(-c2n[nH]cc2C(=NNc2ccccc2Cl)c2ccccc2)c1 [Compound 66]	0
